According to PMC4156518 (Cell metabolism, 2014):

Key:
[1] = target: T1, UCP2 (murine, residues 14-309) (Mus musculus, UniProt P70406); assay: NMR titration, chemical shift perturbation; type: binding
T1 sequence (P70406 14-309): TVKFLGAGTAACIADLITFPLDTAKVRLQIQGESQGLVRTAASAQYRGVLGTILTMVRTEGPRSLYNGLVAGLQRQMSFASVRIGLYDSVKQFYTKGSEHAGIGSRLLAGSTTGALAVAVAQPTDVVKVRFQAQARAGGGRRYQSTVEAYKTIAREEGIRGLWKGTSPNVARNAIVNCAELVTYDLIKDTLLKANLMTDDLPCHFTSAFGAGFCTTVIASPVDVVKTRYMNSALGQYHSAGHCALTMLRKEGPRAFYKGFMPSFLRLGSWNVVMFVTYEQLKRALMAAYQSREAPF

[2] = target: T1, UCP2 (murine, residues 14-309); assay: proteoliposome ASO− flipping assay; type: biochemical; conditions: read-out: % inhibition at 100 μM

Row | Kd [1] [µM] | inhibition at 100 µM [2] [%] | SMILES
1 | 600 ± 200 |  | CCCCCCCCCCCCCCCC(=O)O [C16-FA]
2 |  | ~95 | Nc1nc2c(ncn2[C@@H]2O[C@H](COP(=O)(O)OP(=O)(O)O)[C@@H](O)[C@H]2O)c(=O)[nH]1 [GDP]
